In ChEMBL document CHEMBL1177848, “Synthesis of novel 6,6a,7,8-tetrahydro-5H-naphtho[1,2-e]pyrimido[4,5-b][1,4]diazepines under microwave irradiation as potential anti-tumor agents” (2010):
Active and inactive are the calls of the source. The rule behind the calls is not given here.

Legend:
TK-10 = experiment: Growth inhibition of human TK10 cells after 48 hrs by sulforhodamine B assay; type: functional; settings: TK-10, 48 h
LOX IMVI = experiment: Growth inhibition of human LOXIMVI cells after 48 hrs by sulforhodamine B assay; type: functional
RXF 393 = experiment: Growth inhibition of human RXF393 cells at 1 uM after 48 hrs by sulforhodamine B assay; type: functional, cell-based
M14 = experiment: Growth inhibition of human M14 cells at 1 uM after 48 hrs by sulforhodamine B assay; type: functional, cell-based
SF-539 = experiment: Growth inhibition of human SF539 cells at 1 uM after 48 hrs by sulforhodamine B assay; type: functional, cell-based
IGROV-1 [1] = experiment: Growth inhibition of human IGROV1 cells after 48 hrs by sulforhodamine B assay; type: functional; settings: IGROV-1, 48 h
RPMI-8226 [2] = experiment: Growth inhibition of human RPMI8226 cells after 48 hrs by sulforhodamine B assay; type: functional; settings: RPMI-8226, 48 h
HT-29 = experiment: Growth inhibition of human HT-29 cells at 1 uM after 48 hrs by sulforhodamine B assay; type: functional, cell-based
OVCAR-3 = experiment: Growth inhibition of human OVCAR-3 cells after 48 hrs by sulforhodamine B assay; type: functional; settings: OVCAR-3, 48 h
EKVX = experiment: Growth inhibition of human EKVX cells at 1 uM after 48 hrs by sulforhodamine B assay; type: functional, cell-based
UACC-62 = experiment: Growth inhibition of human UACC62 cells at 1 uM after 48 hrs by sulforhodamine B assay; type: functional, cell-based
NCI-H460 = experiment: Growth inhibition of human NCI-H460 cells after 48 hrs by sulforhodamine B assay; type: functional; settings: NCI-H460, 48 h
DU-145 = experiment: Growth inhibition of human DU145 cells at 1 uM after 48 hrs by sulforhodamine B assay; type: functional, cell-based
NCI/ADR-RES = experiment: Growth inhibition of human NCI/ADR-RES cells after 48 hrs by sulforhodamine B assay; type: functional
NCI-H23 [3] = experiment: Growth inhibition of human NCI-H23 cells after 48 hrs by sulforhodamine B assay; type: functional; settings: NCI-H23, 48 h
COLO 205 [4] = experiment: Growth inhibition of human COLO205 cells at 1 uM after 48 hrs by sulforhodamine B assay; type: functional, cell-based
Malme-3M = experiment: Growth inhibition of human MALME-3M cells at 1 uM after 48 hrs by sulforhodamine B assay; type: functional, cell-based
ACHN [5] = experiment: Growth inhibition of human ACHN cells after 48 hrs by sulforhodamine B assay; type: functional
OVCAR-4 = experiment: Growth inhibition of human OVCAR4 cells after 48 hrs by sulforhodamine B assay; type: functional; settings: OVCAR-4, 48 h
HCT-15 [6] = experiment: Growth inhibition of human HCT15 cells after 48 hrs by sulforhodamine B assay; type: functional; settings: HCT-15, 48 h
Hs-578T = experiment: Growth inhibition of human Hs 578T cells at 1 uM after 48 hrs by sulforhodamine B assay; type: functional, cell-based
NCI-H322M = experiment: Growth inhibition of human […] cells at 1 uM after 48 hrs by sulforhodamine B assay; type: functional, cell-based
SN12C = experiment: Growth inhibition of human SN12C cells after 48 hrs by sulforhodamine B assay; type: functional
SW-620 [7] = experiment: Growth inhibition of human SW620 cells at 1 uM after 48 hrs by sulforhodamine B assay; type: functional, cell-based
NCI-H23 [8] = experiment: Growth inhibition of human NCI-H23 cells at 1 uM after 48 hrs by sulforhodamine B assay; type: functional, cell-based
ACHN [9] = experiment: Growth inhibition of human ACHN cells at 1 uM after 48 hrs by sulforhodamine B assay; type: functional, cell-based
SK-MEL-5 = experiment: Growth inhibition of human SK-MEL-5 cells after 48 hrs by sulforhodamine B assay; type: functional; settings: SK-MEL-5, 48 h
SW-620 [10] = experiment: Growth inhibition of human SW620 cells after 48 hrs by sulforhodamine B assay; type: functional; settings: SW-620, 48 h
RPMI-8226 [11] = experiment: Growth inhibition of human RPMI8226 cells at 1 uM after 48 hrs by sulforhodamine B assay; type: functional, cell-based
KM12 = experiment: Growth inhibition of human KM12 cells at 1 uM after 48 hrs by sulforhodamine B assay; type: functional, cell-based
IGROV-1 [12] = experiment: Growth inhibition of human IGROV1 cells at 1 uM after 48 hrs by sulforhodamine B assay; type: functional, cell-based
MDA-MB-468 = experiment: Growth inhibition of human MDA-MB-468 cells after 48 hrs by sulforhodamine B assay; type: functional; settings: MDA-MB-468, 48 h
HCT-116 = experiment: Growth inhibition of human HCT116 cells at 1 uM after 48 hrs by sulforhodamine B assay; type: functional, cell-based
COLO 205 [13] = experiment: Growth inhibition of human COLO205 cells after 48 hrs by sulforhodamine B assay; type: functional; settings: COLO 205, 48 h
UACC-257 [14] = experiment: Growth inhibition of human UACC257 cells at 1 uM after 48 hrs by sulforhodamine B assay; type: functional, cell-based
UACC-257 [15] = experiment: Growth inhibition of human UACC257 cells after 48 hrs by sulforhodamine B assay; type: functional; settings: UACC-257, 48 h
HCT-15 [16] = experiment: Growth inhibition of human HCT15 cells at 1 uM after 48 hrs by sulforhodamine B assay; type: functional, cell-based
HOP-92 = experiment: Growth inhibition of human HOP92 cells at 1 uM after 48 hrs by sulforhodamine B assay; type: functional, cell-based
MDA-MB-435 = experiment: Growth inhibition of human MDA-MB-435 cells at 1 uM after 48 hrs by sulforhodamine B assay; type: functional, cell-based
K562 = experiment: Growth inhibition of human K562 cells at 1 uM after 48 hrs by sulforhodamine B assay; type: functional, cell-based
HOP-62 = experiment: Growth inhibition of human HOP62 cells at 1 uM after 48 hrs by sulforhodamine B assay; type: functional, cell-based
OVCAR-8 = experiment: Growth inhibition of human OVCAR8 cells at 1 uM after 48 hrs by sulforhodamine B assay; type: functional, cell-based
SF-295 = experiment: Growth inhibition of human SF295 cells after 48 hrs by sulforhodamine B assay; type: functional; settings: SF-295, 48 h
SR = experiment: Growth inhibition of human SR cells at 1 uM after 48 hrs by sulforhodamine B assay; type: functional, cell-based
NCI-H522 [17] = experiment: Growth inhibition of human NCI-H522 cells after 48 hrs by sulforhodamine B assay; type: functional; settings: NCI-H522, 48 h
NCI-H522 [18] = experiment: Growth inhibition of human NCI-H522 cells at 1 uM after 48 hrs by sulforhodamine B assay; type: functional, cell-based
[19] = read-out: LC50 (the source's name)

Q: What does the source list for `Nc1nc(N)c2c(n1)NC(c1ccccc1)C1CCc3ccccc3C1=N2` (stereo not given)?
A: GI50 (TK-10): 3.01 µM; LC50 (50% lethal concentration) (TK-10): 43.6 µM; GI50 (LOX IMVI): 3.79 µM; LC50 (LOX IMVI): 40.6 µM; growth inhibition (GI) (RXF 393): inactive; growth inhibition (GI) (M14): inactive; growth inhibition (GI) (SF-539): inactive; GI50 (IGROV-1 [1]): 4.45 µM; LC50 (concentration killing 50% of cells) (IGROV-1 [1]): 62.3 µM; GI50 (RPMI-8226 [2]): 3.21 µM; LC50 (RPMI-8226 [2]): > 100 µM; growth inhibition (GI) (HT-29): inactive; GI50 (OVCAR-3): 3.48 µM; LC50 (lethal concentration, 50% cell kill) (OVCAR-3): 39.4 µM; growth inhibition (GI) (EKVX): inactive; growth inhibition (GI) (UACC-62): inactive; GI50 (NCI-H460): 3.81 µM; LC50 (NCI-H460): 44.2 µM; growth inhibition (GI) (DU-145): inactive; GI50 (NCI/ADR-RES): 3.13 µM; LC50 (concentration killing 50% of cells) (NCI/ADR-RES): > 100 µM; GI50 (NCI-H23 [3]): 4.56 µM; LC50 (NCI-H23 [3]): 57.4 µM; growth inhibition (GI) (COLO 205 [4]): inactive; growth inhibition (GI) (Malme-3M): inactive; GI50 (ACHN [5]): 4.38 µM; LC50 (50% lethal concentration) (ACHN [5]): 41.9 µM; GI50 (OVCAR-4): 3.06 µM; LC50 (50% lethal concentration) (OVCAR-4): 62.3 µM; GI50 (HCT-15 [6]): 4.06 µM; LC50 (HCT-15 [6]): 48.8 µM; growth inhibition (GI) (Hs-578T): inactive; growth inhibition (GI) (NCI-H322M): inactive; GI50 (SN12C): 7.33 µM; CC50 (SN12C; [19]): 50.8 µM; growth inhibition (GI) (SW-620 [7]): inactive; growth inhibition (GI) (NCI-H23 [8]): inactive; growth inhibition (GI) (ACHN [9]): inactive; GI50 (SK-MEL-5): 0.638 µM; LC50 (SK-MEL-5): 6.35 µM; GI50 (SW-620 [10]): 6.3 µM; LC50 (SW-620 [10]): 53.3 µM; growth inhibition (GI) (RPMI-8226 [11]): inactive; growth inhibition (GI) (KM12): inactive; growth inhibition (GI) (IGROV-1 [12]): inactive; GI50 (MDA-MB-468): 0.473 µM; CC50 (MDA-MB-468; [19]): 20.8 µM; growth inhibition (GI) (HCT-116): inactive; GI50 (COLO 205 [13]): 3.07 µM; LC50 (50% lethal concentration) (COLO 205 [13]): 38.7 µM; growth inhibition (GI) (UACC-257 [14]): inactive; GI50 (UACC-257 [15]): 3.72 µM; CC50 (UACC-257 [15]; [19]): 42.6 µM; growth inhibition (GI) (HCT-15 [16]): inactive; growth inhibition (GI) (HOP-92): inactive; growth inhibition (GI) (MDA-MB-435): inactive; growth inhibition (GI) (K562): inactive; growth inhibition (GI) (HOP-62): inactive; growth inhibition (GI) (OVCAR-8): inactive; GI50 (SF-295): 1.69 µM; LC50 (50% lethal concentration) (SF-295): 34.4 µM; growth inhibition (GI) (SR): inactive; GI50 (NCI-H522 [17]): 4.53 µM; LC50 (NCI-H522 [17]): 65.4 µM; growth inhibition (GI) (NCI-H522 [18]): inactive
